Article PMC5862592, “CDK8/19 inhibition induces premature G1/S transition and ATR-dependent cell death in prostate cancer cells” (Oncotarget, 2018)
Where two headings read alike, the source gives them in different places.

Experiments:
Assay type in all cases: binding
CDK19 [1] = target: T1, CDK19 (Homo sapiens, UniProt Q9BWU1); assay: TR-FRET ligand displacement assay (Kinase Tracer […], Tb-anti-GST); also KINOMEscan […] inhibition at […]
T1 construct: GST-CDK19; with Cyclin C

CDK8 [2] = target: T2, CDK8 (Homo sapiens, UniProt P49336); assay: TR-FRET ligand displacement assay (Kinase Tracer […], Tb-anti-GST); design: GST-CDK8; with Cyclin C
T2 sequence (P49336 whole entry): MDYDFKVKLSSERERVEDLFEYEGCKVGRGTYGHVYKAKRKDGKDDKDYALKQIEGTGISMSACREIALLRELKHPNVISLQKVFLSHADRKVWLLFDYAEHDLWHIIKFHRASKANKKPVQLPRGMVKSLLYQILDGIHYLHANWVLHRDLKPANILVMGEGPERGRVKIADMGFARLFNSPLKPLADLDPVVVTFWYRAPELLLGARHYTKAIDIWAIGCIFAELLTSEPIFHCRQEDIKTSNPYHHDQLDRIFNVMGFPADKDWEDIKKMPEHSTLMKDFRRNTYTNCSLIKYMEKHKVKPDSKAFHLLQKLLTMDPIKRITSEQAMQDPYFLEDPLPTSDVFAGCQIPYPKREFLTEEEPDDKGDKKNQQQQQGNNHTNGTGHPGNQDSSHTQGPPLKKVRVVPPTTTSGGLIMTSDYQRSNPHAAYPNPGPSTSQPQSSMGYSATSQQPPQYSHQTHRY
T2 sequence (P24863 whole entry partner): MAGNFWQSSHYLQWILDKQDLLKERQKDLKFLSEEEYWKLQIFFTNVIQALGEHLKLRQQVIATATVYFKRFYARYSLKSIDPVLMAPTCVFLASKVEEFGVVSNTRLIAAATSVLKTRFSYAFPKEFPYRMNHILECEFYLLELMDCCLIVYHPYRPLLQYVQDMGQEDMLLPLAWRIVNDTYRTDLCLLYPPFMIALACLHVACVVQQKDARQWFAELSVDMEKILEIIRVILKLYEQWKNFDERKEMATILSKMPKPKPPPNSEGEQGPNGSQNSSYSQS

CDK19 [3] = target: T1, CDK19; assay: TR-FRET ligand displacement assay (Kinase Tracer […], Tb-anti-GST); also KINOMEscan […] inhibition at […]; remark: listed apart in the source
CDK8 [4] = target: T2, CDK8; assay: as above; design: GST-CDK8; with Cyclin C

T1 sequence (Q9BWU1 whole entry): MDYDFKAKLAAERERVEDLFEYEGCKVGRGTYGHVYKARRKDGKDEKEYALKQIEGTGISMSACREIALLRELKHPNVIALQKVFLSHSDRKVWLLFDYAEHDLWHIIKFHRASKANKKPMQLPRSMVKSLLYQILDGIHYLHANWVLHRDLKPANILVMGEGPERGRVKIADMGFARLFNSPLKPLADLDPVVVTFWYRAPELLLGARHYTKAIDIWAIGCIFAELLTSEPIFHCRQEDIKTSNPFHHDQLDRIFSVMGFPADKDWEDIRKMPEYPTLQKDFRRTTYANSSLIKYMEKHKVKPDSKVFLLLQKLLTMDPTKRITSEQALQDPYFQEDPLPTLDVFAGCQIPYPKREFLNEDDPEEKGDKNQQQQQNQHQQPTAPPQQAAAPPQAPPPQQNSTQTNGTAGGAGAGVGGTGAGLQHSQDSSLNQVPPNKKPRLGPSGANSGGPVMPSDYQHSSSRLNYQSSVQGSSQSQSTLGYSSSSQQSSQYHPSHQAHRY
T1 sequence (P24863 whole entry partner): as the sequence (P24863 whole entry partner) above

Structure (SMILES) | IC50 (CDK19 [1]) [nM] | IC50 (CDK8 [2]) [nM] | IC50 (CDK19 [3]) [nM] | IC50 (CDK8 [4]) [nM]
O=C(/C=C/c1cnccc1-c1ccc(F)cc1)Nc1ccc(CCc2nnco2)cc1 [T-418, (2E)-3-(4-(4-fluorophenyl)pyridin-3-yl)-N-(4-(2-(1,3,4-oxadiazol-2-yl)ethyl)phenyl)acrylamide] | 62 | 23 |  | 
Cc1ncccc1Oc1sc(C(N)=O)c2c1-c1c(cnn1C)CC2 [T-474, 1-methyl-8-((2-methylpyridin-3-yl)oxy)-4,5-dihydro-1H-thieno[3,4-g]indazole-6-carboxamide] |  |  | 1.9 | 1.6
